Measurements published in patent publication US10500166B2, “Methods for the treatment of erectile dysfunction using fispemifene” (QUATRX PHARMACEUTICALS, priority 2007, dated 2019).

What was measured:
E2 (estradiol) = assay: Example 3 study in hypogonadal men: serum estradiol (ITT); type: in vivo, human;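 on Estradiol, Max: estradiol concentrations in pg/mL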;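 on Estradiol, Mean ± SD: estradiol concentrations in pg/mL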;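 on Estradiol, Median: estradiol concentrations in pg/mL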;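 on Estradiol, Min: estradiol concentrations in pg/mL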
Method: (§1) A randomized, double-blind, placebo controlled, parallel-group study of once-daily doses of fispemifene (100, 200, and 300 mg/day) given for 4 weeks was conducted in a population of hypogonadal men. Subjects were required to meet all of the following inclusion criteria at screening and prior to randomization to be eligible for the study:
(§2) There were 77 subjects total. The number of subjects randomized to the 100 mg fispemifene, 200 mg fispemifene, 300 mg fispemifene, and placebo arms were 21, 21, 19, and 16, respectively.
(§3) Subjects were randomly assigned to one of four treatment groups in a 1:1:1:1 ratio: • Treatment A (100 mg): fispemifene 100 mg+placebo+placebo; • Treatment B (200 mg): fispemifene 100 mg+fispemifene 100 mg+placebo; • Treatment C (300 mg): fispemifene 100 mg+fispemifene 100 mg+fispemifene 100 mg; and • Treatment D (Placebo): placebo+placebo+placebo.
(§4) Subjects took one dose (three capsules) of study medication once a day at home for 4 weeks. Capsules were to be taken in the morning immediately after breakfast, with the exception of the morning of the Week 4 visit. Capsules were not to be taken on the morning of the Week 4 visit because trough plasma levels of fispemifene were determined by a blood sample taken at this visit. Each subject was randomly assigned to treatment with one of the 3 different dose regimens of fispemifene or placebo vehicle. Each subject received a 4 week supply of study drug.
(§5) Blood samples were taken from the subjects within 1 week prior to dosing with study drug to establish baseline values; after 2 and 4 weeks of randomization; and 2 weeks after the last dose of study drug. Serum was prepared from those samples and used to determine the mean % change from baseline in total testosterone, free testosterone, SHBG (sex hormone-binding globulin), DHT (dihydrotestosterone), E2 (estradiol), LH (luteinizing hormone), FSH (follicle stimulating hormone), and inhibin B.
(§6) 3. Percent change from baseline in SHBG, DHT, E2, LH, FSH, inhibin B, and testosterone/E2 ratio at Weeks 2, 4, and 6.

LH (luteinizing hormone) = assay: Example 3 study in hypogonadal men: serum LH (ITT); type: in vivo, human; details: for LH, Max / LH, Mean ± SD / LH, Median / LH, Min: Baseline (Visit 2)
Method: as §1, §2, §3, §4, §5, §6

[1] = 200 mg/day, to Week 6 (2 weeks after discontinuation)
[2] = 300 mg/day, to Week 6 (2 weeks after discontinuation)
[3] = hypogonadal men, 100-300 mg/day for 4 weeks
[4] = 100 mg/day, to Week 6 (2 weeks after discontinuation)

OCCOCCOc1ccc(/C(=C(/CCCl)c2ccccc2)c2ccccc2)cc1 [Fispemifene, (Z)-2-{2-[4-(4-Chloro-1,2-diphenylbut-1-enyl)phenoxy]ethoxy}ethanol]
Estradiol, % Change from Baseline, Median (E2 (estradiol); 200 mg/day, to Week 2): 23%
Estradiol, % Change from Baseline, Max (E2 (estradiol); 200 mg/day, to Week 4): 150%
Estradiol, % Change from Baseline, Median (E2 (estradiol); 200 mg/day, to Week 4): 43%
Estradiol, % Change from Baseline, Max (E2 (estradiol); [1]): 176%
Estradiol, % Change from Baseline, Median (E2 (estradiol); [1]): 23%
Estradiol, Max (E2 (estradiol); 300 mg/day, Baseline (Visit 2)): 42.0 pg/mL
Estradiol, Mean ± SD (E2 (estradiol); 300 mg/day, Baseline (Visit 2)): 20.8 ± 7.15 pg/mL
Estradiol, Median (E2 (estradiol); 300 mg/day, Baseline (Visit 2)): 22.0 pg/mL
Estradiol, Min (E2 (estradiol); 300 mg/day, Baseline (Visit 2)): 10.0 pg/mL
Estradiol, % Change from Baseline, Max (E2 (estradiol); 300 mg/day, to Week 2): 108%
Estradiol, % Change from Baseline, Median (E2 (estradiol); 300 mg/day, to Week 2): 33%
Estradiol, % Change from Baseline, Max (E2 (estradiol); 300 mg/day, to Week 4): 100%
Estradiol, % Change from Baseline, Median (E2 (estradiol); 300 mg/day, to Week 4): 29%
Estradiol, % Change from Baseline, Max (E2 (estradiol); [2]): 77%
Estradiol, % Change from Baseline, Median (E2 (estradiol); [2]): 0%
effect on serum estradiol levels (E2 (estradiol); [3]): increased
LH, Max (LH (luteinizing hormone); 100 mg/day): 13.50 IU/L
LH, Mean ± SD (LH (luteinizing hormone); 100 mg/day): 4.43 ± 2.438 IU/L
LH, Median (LH (luteinizing hormone); 100 mg/day): 4.10 IU/L
LH, Min (LH (luteinizing hormone); 100 mg/day): 1.50 IU/L
LH, % Change from Baseline, Max (LH (luteinizing hormone); 100 mg/day, to Week 2): 141%
LH, % Change from Baseline, Mean ± SD (LH (luteinizing hormone); 100 mg/day, to Week 2): 0.39 ± 0.00496%
LH, % Change from Baseline, Median (LH (luteinizing hormone); 100 mg/day, to Week 2): 29%
LH, % Change from Baseline, Max (LH (luteinizing hormone); 100 mg/day, to Week 4): 203%
LH, % Change from Baseline, Median (LH (luteinizing hormone); 100 mg/day, to Week 4): 49%
LH, % Change from Baseline, Max (LH (luteinizing hormone); [4]): 100%
LH, % Change from Baseline, Median (LH (luteinizing hormone); [4]): 0%
LH, Max (LH (luteinizing hormone); 200 mg/day): 11.60 IU/L
LH, Mean ± SD (LH (luteinizing hormone); 200 mg/day): 4.25 ± 2.028 IU/L
LH, Median (LH (luteinizing hormone); 200 mg/day): 3.60 IU/L
LH, Min (LH (luteinizing hormone); 200 mg/day): 1.00 IU/L
LH, % Change from Baseline, Max (LH (luteinizing hormone); 200 mg/day, to Week 2): 123%
LH, % Change from Baseline, Median (LH (luteinizing hormone); 200 mg/day, to Week 2): 54%
LH, % Change from Baseline, Max (LH (luteinizing hormone); 200 mg/day, to Week 4): 137%
LH, % Change from Baseline, Median (LH (luteinizing hormone); 200 mg/day, to Week 4): 52%
LH, % Change from Baseline, Max (LH (luteinizing hormone); [1]): 80%
LH, % Change from Baseline, Median (LH (luteinizing hormone); [1]): 19%
LH, Max (LH (luteinizing hormone); 300 mg/day): 8.00 IU/L
LH, Mean ± SD (LH (luteinizing hormone); 300 mg/day): 3.62 ± 1.506 IU/L
LH, Median (LH (luteinizing hormone); 300 mg/day): 3.20 IU/L
LH, Min (LH (luteinizing hormone); 300 mg/day): 1.90 IU/L
LH, % Change from Baseline, Max (LH (luteinizing hormone); 300 mg/day, to Week 2): 134%
LH, % Change from Baseline, Median (LH (luteinizing hormone); 300 mg/day, to Week 2): 63%
LH, % Change from Baseline, Max (LH (luteinizing hormone); 300 mg/day, to Week 4): 178%
LH, % Change from Baseline, Median (LH (luteinizing hormone); 300 mg/day, to Week 4): 42%
LH, % Change from Baseline, Max (LH (luteinizing hormone); [2]): 84%
LH, % Change from Baseline, Median (LH (luteinizing hormone); [2]): 19%
effect on serum LH levels (LH (luteinizing hormone); [3]): increased
